Numbers after ± are expanded uncertainties.
Assay: activity coefficient (dimensionless); of the first substance listed, at infinite dilution; xn = mol fraction of the nth substance listed
Details: 101 kPa, Liquid, Chromatography, x1 = 0

O [water] + CCCCCCOCn1cc[n+](COCCCCCC)c1.O=S(=O)([N-]S(=O)(=O)C(F)(F)F)C(F)(F)F
Details | activity coefficient
298.15 K | 4.43 ± 0.3
308.15 K | 3.8 ± 0.26
318.15 K | 3.31 ± 0.23
328.15 K | 2.93 ± 0.2
338.15 K | 2.53 ± 0.17
348.15 K | 2.24 ± 0.15
358.15 K | 2.02 ± 0.14
368.15 K | 1.83 ± 0.12
